From patent US20250101065A1, “REVERSE PEPTIDES FROM CORONAVIRUS FOR IMMUNOGENIC PURPOSES” (Emergex Vaccines Holding Limited, priority 2021, published 2025)
No end group written: not given here.

Legend:
human PBMCs = assay: IFN-gamma ELISPOT after stimulation of PBMCs with negative sense SARS-COV-2 peptides; format: cell-based
CD3+ T cells of PBMCs = assay: Flow cytometry analysis of T cell surface markers after peptide stimulation of PBMCs; format: cell-based, human
Experimental: At day 7 post-stimulation, remaining PBMCs were resuspended in flow cytometry buffer (PBS+1% BSA+2 mM EDTA) at a concentration of 1×10^6 cells/mL, and blocked for at least 10 minutes. Cells were then aliquoted in a 96-well plate, centrifuged (5 mins/[…]/300×g), and resuspended in 45 μL buffer. Live/Dead stain was added (Fixable Near IR) at 1 μL in 1000 μL, and cells incubated at […] for 10 minutes in the dark. 120 μL buffer was added, samples were centrifuged for 5 mins, supernatants discarded and wash repeated with 200 μL buffer. Cells were then resuspended in buffer containing antibodies to T cell markers at the appropriate concentration (final staining volume 50 μL) and incubated for at least 30 minutes in the dark at […]
120 μL buffer was added to cell samples, centrifuged for 5 mins, supernatants discarded. This wash step was then repeated. Compensation beads were incubated with the individual antibodies at the same concentration. Voltages on the Attune flow cytometer were adjusted using antibody-stained compensation beads, as well as unstained and NIR-stained cells.
Acquisition was set to acquire at least 150,000 events on CD3 gated cells.
PBMCs were stained with a panel of antibodies (as listed in the previous section) against cell surface markers to characterize different T cell populations, such as naïve T cells (A), Central memory T cells (B), Effector memory T cells (C) and (D), and resident memory T cells (E). In addition, activation markers were also analysed (F) to (I). The percentage of positive cells gated on CD3+T cell populations were plotted.

[1] = PBMCs from EVB00028, day 7 post-stimulation

VALLTCQTIGLCN [SEQ ID NO: 11]
IFN-gamma ELISPOT reactivity (human PBMCs; donor EVB00033): reacted strongly | Activation of CD3+ cells (upregulation of CD69, CD38, OX40/CD25, PDL1/CD25) (CD3+ T cells of PBMCs; [1]): induced activation

LYVALLVALLTCQ [SEQ ID NO: 6, LYVALLVALLTCQ]
IFN-gamma ELISPOT reactivity (human PBMCs; all three donors (EVB00028, EVB00031, EVB00033), 7 days stimulation, 24 h re-stimulation): strong reactivity | Activation of CD3+ cells (upregulation of CD69, CD38, OX40/CD25, PDL1/CD25) (CD3+ T cells of PBMCs; [1]): induced activation | Activation of CD3+ cells (upregulation of CD69, CD38, OX40/CD25, PDL1/CD25) (CD3+ T cells of PBMCs; PBMCs from EVB00033, day 7 post-stimulation): similarly activated

VFTLHSRTSF [SEQ ID NO: 12]
IFN-gamma ELISPOT reactivity (human PBMCs; donors EVB00028 and EVB00031): reacted strongly
